Experiments:
[1] = biological target: Calcium/calmodulin-dependent protein kinase type 1D (Homo sapiens) (UniProt Q8IU85); experiment: Inhibition of wild-type human partial length CAMK1D (M1 to K299 residues) expressed in bacterial expression system at 1 uM by Kinomescan method relative to control
[2] = test system: Mast/stem cell growth factor receptor Kit (Homo sapiens), P10721 [V559D,T670I]; experiment: Inhibition of human partial length KIT V559D/T670I double mutant (Y545 to D952 residues) expressed in bacterial expression system at 1 uM by Kinomescan method relative to control
[3] = biological target: Cyclin-dependent kinase 18 (Homo sapiens) (UniProt Q07002); experiment: Inhibition of wild-type human full length PCTK3 (M3 to F474 residues) expressed in bacterial expression system at 1 uM by Kinomescan method relative to control
[4] = test system: Proto-oncogene tyrosine-protein kinase receptor Ret (Homo sapiens), P07949 [M918T]; experiment: Inhibition of human partial length RET M918T mutant (E713 to D1014 residues) expressed in bacterial expression system at 1 uM by Kinomescan method relative to control
[5] = biological target: Ribosomal protein S6 kinase alpha-5 (Homo sapiens) (UniProt O75582); experiment: Inhibition of wild-type human partial length N-terminal RPS6KA5 kinase domain 1 expressed in bacterial expression system at 1 uM by Kinomescan method relative to control
[6] = biological target: Serine/threonine-protein kinase 33 (Homo sapiens) (UniProt Q9BYT3); experiment: Inhibition of wild-type human full length STK33 (M1 to L514 residues) expressed in bacterial expression system at 1 uM by Kinomescan method relative to control
[7] = biological target: Mitogen-activated protein kinase kinase kinase 7 (Homo sapiens) (UniProt O43318); experiment: Inhibition of wild-type human partial length TAK1 (M1 to Q303 residues) expressed in mammalian expression system at 1 uM by Kinomescan method relative to control
[8] = biological target: Serine/threonine-protein kinase VRK2 (Homo sapiens) (UniProt Q86Y07); experiment: Inhibition of wild-type human partial length VRK2 (M1 to T336 residues) expressed in mammalian expression system at 1 uM by Kinomescan method relative to control
[9] = biological target: Mitogen-activated protein kinase kinase kinase 19 (Homo sapiens) (UniProt Q56UN5); experiment: Inhibition of wild-type human partial length YSK4 (T1019 to H1328 residues) expressed in mammalian expression system at 1 uM by Kinomescan method relative to control
[10] = biological target: Mitogen-activated protein kinase kinase kinase 12 (Homo sapiens) (UniProt Q12852); experiment: Inhibition of wild-type human full length DLK (M1 to P859 residues) expressed in mammalian expression system at 1 uM by Kinomescan method relative to control
[11] = test system: Tyrosine-protein kinase ABL1 (Homo sapiens), P00519 [F317I]; experiment: Inhibition of human phosphorylated ABL1 F317I mutant (S229 to K512 residues) expressed in mammalian expression system at 10 uM by Kinomescan method relative to control
[12] = biological target: Serine/threonine-protein kinase B-raf (Homo sapiens) (UniProt P15056); experiment: Inhibition of wild-type human partial length BRAF (S429 to E741 residues) expressed in mammalian expression system at 10 uM by Kinomescan method relative to control
[13] = biological target: Peripheral plasma membrane protein CASK (Homo sapiens) (UniProt O14936); experiment: Inhibition of wild-type human partial length CASK (M1 to H315 residues) expressed in mammalian expression system at 10 uM by Kinomescan method relative to control
[14] = biological target: Cyclin-dependent kinase 19 (Homo sapiens) (UniProt Q9BWU1); experiment: Inhibition of wild-type human partial length CDK11 (M1 to N360 residues) expressed in bacterial expression system at 10 uM by Kinomescan method relative to control
[15] = biological target: Casein kinase I isoform alpha-like (Homo sapiens) (UniProt Q8N752); experiment: Inhibition of wild-type human full length CSNK1A1L (M1 to N337 residues) expressed in bacterial expression system at 10 uM by Kinomescan method relative to control
[16] = biological target: Casein kinase I isoform gamma-1 (Homo sapiens) (UniProt Q9HCP0); experiment: Inhibition of wild-type human partial length CSNK1G1 (T15 to S353 residues) expressed in bacterial expression system at 10 uM by Kinomescan method relative to control
[17] = biological target: Casein kinase I isoform gamma-2 (Homo sapiens) (UniProt P78368); experiment: Inhibition of wild-type human full length CSNK1G2 (M1 to K415 residues) expressed in bacterial expression system at 10 uM by Kinomescan method relative to control
[18] = biological target: Ephrin type-B receptor 4 (Homo sapiens) (UniProt P54760); experiment: Inhibition of wild-type human partial length EPHB4 (H585 to G892 residues) expressed in bacterial expression system at 10 uM by Kinomescan method relative to control
[19] = biological target: Inhibitor of nuclear factor kappa-B kinase subunit epsilon (Homo sapiens) (UniProt Q14164); experiment: Inhibition of wild-type human full length IKK-epsilon (M1 to V716 residues) expressed in mammalian expression system at 10 uM by Kinomescan method relative to control
[20] = biological target: Mitogen-activated protein kinase 9 (Homo sapiens) (UniProt P45984); experiment: Inhibition of wild-type human full length JNK2 (M1 to Q382 residues) expressed in mammalian expression system at 10 uM by Kinomescan method relative to control
[21] = biological target: Hepatocyte growth factor receptor (Homo sapiens) (UniProt P08581); experiment: Inhibition of wild-type human partial length MET (D1010 to S1367 residues) expressed in bacterial expression system at 10 uM by Kinomescan method relative to control
[22] = biological target: Serine/threonine-protein kinase 24 (Homo sapiens) (UniProt Q9Y6E0); experiment: Inhibition of wild-type human partial length MST3 (A30 to S311 residues) expressed in bacterial expression system at 10 uM by Kinomescan method relative to control
[23] = biological target: Phosphatidylinositol 5-phosphate 4-kinase type-2 beta (Homo sapiens) (UniProt P78356); experiment: Inhibition of wild-type human full length PIP5K2B (M1 to T416 residues) expressed in bacterial expression system at 10 uM by Kinomescan method relative to control
[24] = test system: Proto-oncogene tyrosine-protein kinase receptor Ret (Homo sapiens), P07949 [M918T]; experiment: Inhibition of human partial length RET M918T mutant (E713 to D1014 residues) expressed in bacterial expression system at 10 uM by Kinomescan method relative to control
[25] = biological target: Tyrosine-protein kinase SYK (Homo sapiens) (UniProt P43405); experiment: Inhibition of wild-type human partial length SYK (D354 to N635 residues) expressed in bacterial expression system at 10 uM by Kinomescan method relative to control
[26] = biological target: Serine/threonine-protein kinase WNK1 (Homo sapiens) (UniProt Q9H4A3); experiment: Inhibition of wild-type human partial length WNK1 (Q194 to A490 residues) expressed in mammalian expression system at 10 uM by Kinomescan method relative to control
[27] = biological target: Serine/threonine-protein kinase WNK3 (Homo sapiens) (UniProt Q9BYP7); experiment: Inhibition of wild-type human partial length WNK3 (M1 to D434 residues) expressed in mammalian expression system at 10 uM by Kinomescan method relative to control

Sequence of Proto-oncogene tyrosine-protein kinase receptor Ret (Homo sapiens), P07949 [M918T] (P07949 whole entry M918T, the tested form may be a part): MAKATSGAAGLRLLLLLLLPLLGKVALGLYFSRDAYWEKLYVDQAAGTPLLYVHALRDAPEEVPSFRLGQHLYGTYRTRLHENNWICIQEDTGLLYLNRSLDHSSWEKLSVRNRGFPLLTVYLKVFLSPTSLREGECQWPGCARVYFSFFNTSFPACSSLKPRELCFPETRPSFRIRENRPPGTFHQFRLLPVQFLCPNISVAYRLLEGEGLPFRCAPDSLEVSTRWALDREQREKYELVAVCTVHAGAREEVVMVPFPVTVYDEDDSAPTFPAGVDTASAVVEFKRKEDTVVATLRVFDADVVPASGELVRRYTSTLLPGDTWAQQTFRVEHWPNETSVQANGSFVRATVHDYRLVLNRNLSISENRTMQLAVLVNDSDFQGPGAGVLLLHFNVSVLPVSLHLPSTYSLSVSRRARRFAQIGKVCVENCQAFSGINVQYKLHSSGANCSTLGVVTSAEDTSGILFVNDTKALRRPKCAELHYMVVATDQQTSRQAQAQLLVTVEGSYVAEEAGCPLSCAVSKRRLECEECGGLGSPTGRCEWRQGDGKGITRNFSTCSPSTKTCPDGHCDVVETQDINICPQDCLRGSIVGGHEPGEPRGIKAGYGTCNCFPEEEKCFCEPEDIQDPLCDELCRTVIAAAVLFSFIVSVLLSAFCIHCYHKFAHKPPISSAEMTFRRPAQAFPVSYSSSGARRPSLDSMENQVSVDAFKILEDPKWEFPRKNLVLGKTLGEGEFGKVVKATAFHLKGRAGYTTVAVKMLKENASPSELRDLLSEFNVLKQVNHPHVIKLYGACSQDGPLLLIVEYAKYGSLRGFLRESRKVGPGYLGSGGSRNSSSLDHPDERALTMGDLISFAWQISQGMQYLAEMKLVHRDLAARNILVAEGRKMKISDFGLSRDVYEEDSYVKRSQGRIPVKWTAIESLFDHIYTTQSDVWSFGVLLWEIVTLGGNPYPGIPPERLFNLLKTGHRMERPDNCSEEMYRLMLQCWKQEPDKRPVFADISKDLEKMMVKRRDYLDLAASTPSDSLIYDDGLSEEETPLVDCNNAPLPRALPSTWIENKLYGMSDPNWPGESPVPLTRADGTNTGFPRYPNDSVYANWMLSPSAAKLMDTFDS
Sequence of Mast/stem cell growth factor receptor Kit (Homo sapiens), P10721 [V559D,T670I] (P10721 whole entry V559D/T670I, the tested form may be a part): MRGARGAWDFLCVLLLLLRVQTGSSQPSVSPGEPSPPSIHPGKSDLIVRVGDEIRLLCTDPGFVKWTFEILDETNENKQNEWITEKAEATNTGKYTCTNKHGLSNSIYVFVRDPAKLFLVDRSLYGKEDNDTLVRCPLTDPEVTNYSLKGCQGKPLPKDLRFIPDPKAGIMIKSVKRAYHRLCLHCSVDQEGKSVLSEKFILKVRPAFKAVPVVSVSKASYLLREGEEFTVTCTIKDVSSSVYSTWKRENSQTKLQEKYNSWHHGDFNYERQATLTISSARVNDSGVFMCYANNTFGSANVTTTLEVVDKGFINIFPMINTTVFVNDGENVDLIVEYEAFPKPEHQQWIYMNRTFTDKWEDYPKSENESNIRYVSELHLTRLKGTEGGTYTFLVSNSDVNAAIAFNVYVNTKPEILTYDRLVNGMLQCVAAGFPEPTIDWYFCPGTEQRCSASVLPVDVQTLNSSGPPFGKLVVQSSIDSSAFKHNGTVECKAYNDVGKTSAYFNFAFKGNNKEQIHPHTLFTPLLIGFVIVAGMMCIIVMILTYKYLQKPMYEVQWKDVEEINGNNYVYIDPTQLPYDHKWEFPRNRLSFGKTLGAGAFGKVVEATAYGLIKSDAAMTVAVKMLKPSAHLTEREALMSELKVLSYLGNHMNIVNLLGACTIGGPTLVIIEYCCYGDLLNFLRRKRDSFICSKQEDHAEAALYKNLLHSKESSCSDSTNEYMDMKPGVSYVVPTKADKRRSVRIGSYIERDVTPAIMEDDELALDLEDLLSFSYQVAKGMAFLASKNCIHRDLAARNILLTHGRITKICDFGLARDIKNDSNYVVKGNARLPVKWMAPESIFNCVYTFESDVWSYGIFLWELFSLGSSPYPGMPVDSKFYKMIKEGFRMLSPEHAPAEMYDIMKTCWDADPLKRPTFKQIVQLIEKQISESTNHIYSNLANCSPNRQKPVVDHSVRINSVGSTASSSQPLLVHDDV
Sequence of Serine/threonine-protein kinase WNK1 (Homo sapiens) (Q9H4A3 whole entry, looked up, the tested form may be a part): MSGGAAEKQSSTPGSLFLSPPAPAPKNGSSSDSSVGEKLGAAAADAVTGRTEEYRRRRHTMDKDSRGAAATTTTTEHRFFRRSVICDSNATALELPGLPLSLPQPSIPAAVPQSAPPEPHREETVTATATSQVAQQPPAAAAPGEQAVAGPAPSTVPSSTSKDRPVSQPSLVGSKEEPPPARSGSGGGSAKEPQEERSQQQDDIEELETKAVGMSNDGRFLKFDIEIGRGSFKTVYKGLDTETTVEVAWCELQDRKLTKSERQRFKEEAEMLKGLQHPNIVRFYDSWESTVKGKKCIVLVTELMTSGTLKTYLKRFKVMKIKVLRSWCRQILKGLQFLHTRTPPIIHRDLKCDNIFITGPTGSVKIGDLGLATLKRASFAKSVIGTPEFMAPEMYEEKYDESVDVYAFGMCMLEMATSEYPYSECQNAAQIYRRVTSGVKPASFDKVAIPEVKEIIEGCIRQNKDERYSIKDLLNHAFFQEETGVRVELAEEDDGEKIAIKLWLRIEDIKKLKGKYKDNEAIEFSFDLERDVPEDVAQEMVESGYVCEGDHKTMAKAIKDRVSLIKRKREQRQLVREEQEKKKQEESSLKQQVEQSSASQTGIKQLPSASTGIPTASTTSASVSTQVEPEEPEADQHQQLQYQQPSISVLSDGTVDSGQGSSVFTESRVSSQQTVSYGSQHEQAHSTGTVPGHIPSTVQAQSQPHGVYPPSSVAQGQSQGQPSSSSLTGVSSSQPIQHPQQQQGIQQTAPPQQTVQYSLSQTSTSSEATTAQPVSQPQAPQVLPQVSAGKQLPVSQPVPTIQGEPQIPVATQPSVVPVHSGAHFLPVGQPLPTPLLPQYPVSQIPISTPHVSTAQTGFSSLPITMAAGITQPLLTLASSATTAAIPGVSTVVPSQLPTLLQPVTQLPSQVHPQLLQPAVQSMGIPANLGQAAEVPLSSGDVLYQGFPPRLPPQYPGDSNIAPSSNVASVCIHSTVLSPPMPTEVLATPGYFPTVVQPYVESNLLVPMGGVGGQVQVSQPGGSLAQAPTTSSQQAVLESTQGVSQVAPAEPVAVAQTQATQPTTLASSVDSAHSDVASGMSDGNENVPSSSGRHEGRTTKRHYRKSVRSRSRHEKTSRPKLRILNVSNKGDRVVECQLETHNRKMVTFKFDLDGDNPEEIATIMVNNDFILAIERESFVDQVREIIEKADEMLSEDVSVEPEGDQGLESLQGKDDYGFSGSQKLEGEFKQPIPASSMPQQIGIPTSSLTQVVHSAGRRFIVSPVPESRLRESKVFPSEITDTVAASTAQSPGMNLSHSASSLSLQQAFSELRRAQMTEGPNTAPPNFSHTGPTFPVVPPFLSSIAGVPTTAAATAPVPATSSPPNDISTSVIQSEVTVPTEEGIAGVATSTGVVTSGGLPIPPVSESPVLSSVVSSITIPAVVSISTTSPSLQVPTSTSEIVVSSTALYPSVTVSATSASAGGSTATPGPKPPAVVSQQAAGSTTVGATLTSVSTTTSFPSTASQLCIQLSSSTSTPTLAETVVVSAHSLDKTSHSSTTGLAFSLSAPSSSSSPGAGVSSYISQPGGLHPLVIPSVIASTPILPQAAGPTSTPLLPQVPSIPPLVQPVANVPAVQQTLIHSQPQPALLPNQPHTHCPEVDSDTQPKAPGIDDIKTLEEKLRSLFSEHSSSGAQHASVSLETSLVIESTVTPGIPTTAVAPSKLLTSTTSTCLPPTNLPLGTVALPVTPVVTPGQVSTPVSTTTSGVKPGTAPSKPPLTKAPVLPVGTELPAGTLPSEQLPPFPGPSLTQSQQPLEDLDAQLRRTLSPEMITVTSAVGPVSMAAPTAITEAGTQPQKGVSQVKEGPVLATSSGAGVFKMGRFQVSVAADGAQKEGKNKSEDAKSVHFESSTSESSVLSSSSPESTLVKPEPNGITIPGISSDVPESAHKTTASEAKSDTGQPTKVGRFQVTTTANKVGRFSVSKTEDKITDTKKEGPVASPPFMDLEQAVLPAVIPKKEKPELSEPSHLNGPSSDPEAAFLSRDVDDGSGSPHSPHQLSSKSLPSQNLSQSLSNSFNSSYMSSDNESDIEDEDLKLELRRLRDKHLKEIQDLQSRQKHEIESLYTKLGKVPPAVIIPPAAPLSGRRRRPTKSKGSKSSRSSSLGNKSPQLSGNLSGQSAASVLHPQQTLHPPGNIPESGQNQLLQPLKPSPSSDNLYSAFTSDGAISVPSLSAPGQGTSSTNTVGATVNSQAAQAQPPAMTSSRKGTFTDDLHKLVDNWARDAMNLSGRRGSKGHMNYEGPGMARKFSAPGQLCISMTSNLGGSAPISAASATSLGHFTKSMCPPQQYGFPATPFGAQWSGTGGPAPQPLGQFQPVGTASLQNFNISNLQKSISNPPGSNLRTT
Sequence of Mitogen-activated protein kinase 9 (Homo sapiens) (P45984 whole entry, looked up, the tested form may be a part): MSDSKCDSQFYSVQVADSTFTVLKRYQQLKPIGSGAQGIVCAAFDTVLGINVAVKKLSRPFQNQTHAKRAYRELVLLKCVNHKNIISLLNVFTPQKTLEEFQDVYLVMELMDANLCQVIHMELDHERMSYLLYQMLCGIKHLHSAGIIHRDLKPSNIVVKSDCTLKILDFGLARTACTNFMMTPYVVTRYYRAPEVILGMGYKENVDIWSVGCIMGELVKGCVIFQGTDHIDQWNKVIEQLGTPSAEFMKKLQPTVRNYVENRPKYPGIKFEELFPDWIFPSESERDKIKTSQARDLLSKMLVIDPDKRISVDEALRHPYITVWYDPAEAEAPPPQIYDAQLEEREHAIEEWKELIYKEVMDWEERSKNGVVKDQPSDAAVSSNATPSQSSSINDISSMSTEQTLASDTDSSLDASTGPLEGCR

O=C(Nc1cccc([C@@H]2CN(c3ncnc4[nH]ccc34)CCN2CCO)c1)Nc1c(F)cccc1N1CCCC1
inhibition [1]: 100%
inhibition [2]: 64%
inhibition [3]: 97%
inhibition [4]: 0.05%
inhibition [5]: 99%
inhibition [6]: 55%
inhibition [7]: 97%
inhibition [8]: 100%
inhibition [9]: 40%
inhibition [10]: 79%

O=C(Nc1cccc([C@H]2CCCN(c3ncnc4[nH]ccc34)C2)c1)Nc1ccccc1N1CCCC1
inhibition [11]: 94%
inhibition [12]: 35%
inhibition [13]: 85%
inhibition [14]: 37%
inhibition [15]: 100%
inhibition [16]: 99%
inhibition [17]: 100%
inhibition [18]: 98%
inhibition [19]: 67%
inhibition [20]: 81%
inhibition [21]: 86%
inhibition [22]: 56%
inhibition [23]: 4.7%
inhibition [24]: 0%
inhibition [25]: 52%
inhibition [26]: 72%
inhibition [27]: 61%

From ChEMBL document CHEMBL4387741, “Optimization of novel reversible Bruton's tyrosine kinase inhibitors identified using Tethering-fragment-based screens” (Bioorg Med Chem, 2019)
